In patent US20220305017A1, “COMPOSITIONS AND METHODS FOR THE TREATMENT OF ESTROGEN-DEPENDENT DISORDERS” (ObsEva S.A., priority 2019, published 2022):

Tests used:
[1] = molecular target: T1, human GnRH receptor (Homo sapiens, UniProt P30968); assay: affinity for human GnRH receptor; assay type: binding; conditions: compound (VI) as well as its salts such as the choline salt; kind of constant not stated
T1 sequence (P30968 1-328): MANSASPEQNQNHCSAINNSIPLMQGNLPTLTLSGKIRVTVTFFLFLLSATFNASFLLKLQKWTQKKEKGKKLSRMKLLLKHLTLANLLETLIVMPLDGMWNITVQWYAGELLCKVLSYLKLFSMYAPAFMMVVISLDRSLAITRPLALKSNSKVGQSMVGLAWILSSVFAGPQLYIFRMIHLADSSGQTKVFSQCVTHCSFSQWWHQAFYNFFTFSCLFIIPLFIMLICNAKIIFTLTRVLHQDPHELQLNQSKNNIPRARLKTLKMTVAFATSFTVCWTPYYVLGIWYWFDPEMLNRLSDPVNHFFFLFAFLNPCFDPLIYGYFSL

[2] = system: human female patients diagnosed as having uterine fibroids; assay: PRIMROSE 1 Phase 3 placebo-controlled trial in uterine fibroids; assay type: in vivo; conditions: for proportion of patients with menstrual blood loss ≤80 mL and ≥50% reduction from baseline: 24 weeks
Description: (§1) This example describes the results of two Phase 3, double-blind, randomized, placebo-controlled, multicenter, human clinical trials undertaken to evaluate the efficacy of the GnRH antagonist represented by formula (VI) in a series of patients suffering from uterine fibroids. In these trials, referred to herein as “PRIMROSE 1” and “PRIMROSE 2,” human female patients diagnosed as having uterine fibroids were periodically administered compound (VI), 3-[2-fluoro-5-(2,3-difluoro-6-methoxybenzyloxy)4-methoxyphenyl]-2,4-dioxo-1,2,3,4-tetrahydrothieno [3,4d]pyrimidine-5-carboxylic acid, in the form of a choline salt over the course of a 12-month treatment period. Patients were administered compound (VI) once daily in an amount of either 100 mg or 200 mg. Patients receiving compound (VI) in a daily amount of 200 mg also received once daily hormonal add-back therapy (ABT), which consisted of […] of β17-estradiol (E2) per day and 0.5 mg of norethindrone acetate (NETA) per day.
(§2) The PRIMROSE 1 study, conducted in the United States, enrolled 526 women. The PRIMROSE 2 study, conducted in the United States and Europe, enrolled 535 women.
(§3) Patients were randomized to one of several cohorts: (i) placebo, (ii) 100 mg/day of compound (VI), or (iii) 200 mg/day of compound (VI). Patients receiving 200 mg/day of compound (VI) also received once-daily ABT containing 1.0 mg E2 and 0.5 mg NETA.
(§4) Patients were assessed for uterine fibroid symptomology at baseline, after 24 weeks of treatment, and again after 52 weeks of treatment. […] Patients were also assessed in order to determine the number of days of uterine bleeding during their last 28-day interval prior to week 24 of treatment with placebo or compound (VI).
(§5) Pain levels were measured using a Verbal Rating Score (VRS), as described herein. Patients were also assessed to determine the proportion that reported an improvement in quality of life using the Uterine Fibroids Symptoms and Health-Related Quality of Life questionnaire.
(§6) To evaluate the safety of compound (VI), patients' bone mineral density levels were measured at baseline and at various timepoints during the studies.

[3] = system: human female patients diagnosed as having uterine fibroids; assay: PRIMROSE 2 Phase 3 placebo-controlled trial in uterine fibroids; assay type: in vivo
Description: as §1, §2, §3, §4, §5, §6

[4] = once-daily treatment, 24 and 52 weeks, FIG. 9

For `COc1cc(F)c(-n2c(=O)[nH]c3csc(C(=O)O)c3c2=O)cc1OCc1c(OC)ccc(F)c1F` [Compound (VI), 3-[2-fluoro-5-(2,3-difluoro-6-methoxybenzyloxy)4-methoxyphenyl]-2,4-dioxo-1,2,3,4-tetrahydrothieno [3,4d]pyrimidine-5-carboxylic acid], the “affinity for human GnRH receptor” value [1] was 27.4 nM, the “p value: Improvement in quality of life, Change from baseline in quality of life (QoL) symptom severity score (LS mean)” value ([2]; 100 mg/day) was “p = 0.002” and the “p value: Improvement in quality of life, Change from baseline in quality of life (QoL) symptom severity score (LS mean)” value ([2]; 200 mg/day + once-daily ABT) was “p < 0.001”. For the same molecule, the “proportion of patients with menstrual blood loss ≤80 mL and ≥50% reduction from baseline” value ([2]; 100 mg per day without ABT, p=0.003, placebo 35%) was 56.4%, the “proportion of patients with menstrual blood loss ≤80 mL and ≥50% reduction from baseline” value ([2]; 200 mg per day + ABT (1.0 mg E2 + 0.5 mg NETA), p<0.001, placebo 35%) was 75.5% and the “bone mineral density, lumbar spine” value [2, 4] was “does not induce a substantial decrease in bone mineral density”. For the same molecule, the “p value: Improvement in quality of life, Change from baseline in quality of life (QoL) symptom severity score (LS mean)” value ([3]; 100 mg/day) was “p = 0.004”, the “p value: Improvement in quality of life, Change from baseline in quality of life (QoL) symptom severity score (LS mean)” value ([3]; 200 mg/day + once-daily ABT) was “p < 0.001” and the “proportion of patients with menstrual blood loss to a level of 80 mL and a 50% reduction from baseline” value ([3]; 52 weeks, 100 mg per day without ABT) was 53.2%. The “proportion of patients with menstrual blood loss ≤80 mL and ≥50% reduction from baseline” value ([3]; 52 weeks, 200 mg per day + ABT) was 91.6% and the “bone mineral density, lumbar spine” value [3, 4] was “does not induce a substantial decrease in bone mineral density”.
